Read-outs that look alike come from different tables or passages of the source.
How the values were obtained:
Assay type in all cases: biochemical
PI3Kα = molecular target: T1, PI3Kα (Homo sapiens, UniProt P42336); experiment: In vitro enzyme activity (ADP-Glo) against PI3Kα; details: Table 2; ATP 10 μM, PIP2:PS 50 μM
T1 construct: purchased Invitrogen (US)
Method: (§1) In vitro enzyme activity experiments were performed to determine the IC50 values of the compounds against PI3K family type I kinases (PI3Kα, PI3Kβ, PI3Kγ, PI3Kδ) and type II kinases (PIK3C2A, PIK3C2B). Protein kinases PI3Kα, PI3Kγ, PI3Kδ, PIK3C2A, and PIK3C2B were all purchased from Invitrogen (US); protein kinase PI3Kβ was purchased from sigma (US); the three substrates PIP2: PS, PI and PI: PS were purchased from Invitrogen (US).
(§2) Protein kinases diluted to a certain concentration, i.e., PI3Kα 5.4 μL (with a final concentration of 0.16 ng/μL), PI3Kβ 5.4 μL (with a final concentration of 6 ng/μL), PI3Kδ 5.4 μL (with a final concentration of 1 ng/μL), PI3Kγ 5.4 μL (with a final concentration of 5 ng/μL), PIK3C2A 5.4 μL (with a final concentration of 5 ng/μL), and PIK3C2B 5.4 μL (with a final concentration of 10 ng/μL) were respectively reacted with 1 μL of the serially diluted drug compounds for 1 hour at room temperature (final drug concentrations were 10 μM, 1 μM, 0.3 μM, 0.1 μM, 0.03 μM, 0.01 μM, 0.003 μM, and 0.001 μM, respectively).
(§3) To each reaction tube of the above PI3K family type I kinases, 6 μL of a mixture of ATP (Promega, US) and substrate PIP2:PS (final concentrations of ATP in the reaction systems of kinases PI3Kα, and PI3Kβ were 10 μM, and final concentrations of ATP in the reaction systems of kinases PI3Kδ, and PI3Kγ were 50 μM, and final concentrations of the substrate PIP2:PS were all 50 μM) was added, and reacted at 37° C. for 1 hour. The reaction buffer was 50 mM Hepes (pH 7.5) (Promega, USA), 3 mM MgCl2, 1 mM EGTA (Promega, US), 100 mM NaCl, 0.03% CHAPS (Promega, US).
(§4) 5 μL of kinase solution after reaction was placed in a 384-well plate (Corning, US), and 5 μL of ADP-Glo™ reagent (Promega, US) was added thereto and reacted at room temperature for 40 minutes to stop the kinase reaction and exhaust the remaining ATP; 10 μL of kinase detection reagent was added to convert ADP into ATP, and coupled luciferase/luciferin reaction was utilized to detect the newly synthesized ATP. Envision was utilized for readout and plotting, and Graphpad IC50 value was calculated.

PI3Kγ = molecular target: T2, PI3Kγ (Homo sapiens, UniProt P48736); experiment: In vitro enzyme activity (ADP-Glo) against PI3Kγ; details: ATP 50 μM, PIP2:PS 50 μM
T2 construct: purchased Invitrogen (US)
Method: as §1, §2, §3, §4

PI3Kδ = molecular target: T3, PI3Kδ (Homo sapiens, UniProt O00329); experiment: In vitro enzyme activity (ADP-Glo) against PI3Kδ; details: Table 2; ATP 50 μM, PIP2:PS 50 μM
T3 construct: purchased Invitrogen (US)
Method: as §1, §2, §3, §4

PI3Kβ = molecular target: T4, PI3Kβ (Homo sapiens, UniProt P42338); experiment: In vitro enzyme activity (ADP-Glo) against PI3Kβ; details: ATP 10 μM, PIP2:PS 50 μM
T4 construct: purchased sigma (US)
Method: as §1, §2, §3, §4

[1] = Table 2, read-out: IC50 against PI3Kγ
[2] = Table 2, read-out: IC50 against PI3Kβ

T4 sequence (P42338 whole entry): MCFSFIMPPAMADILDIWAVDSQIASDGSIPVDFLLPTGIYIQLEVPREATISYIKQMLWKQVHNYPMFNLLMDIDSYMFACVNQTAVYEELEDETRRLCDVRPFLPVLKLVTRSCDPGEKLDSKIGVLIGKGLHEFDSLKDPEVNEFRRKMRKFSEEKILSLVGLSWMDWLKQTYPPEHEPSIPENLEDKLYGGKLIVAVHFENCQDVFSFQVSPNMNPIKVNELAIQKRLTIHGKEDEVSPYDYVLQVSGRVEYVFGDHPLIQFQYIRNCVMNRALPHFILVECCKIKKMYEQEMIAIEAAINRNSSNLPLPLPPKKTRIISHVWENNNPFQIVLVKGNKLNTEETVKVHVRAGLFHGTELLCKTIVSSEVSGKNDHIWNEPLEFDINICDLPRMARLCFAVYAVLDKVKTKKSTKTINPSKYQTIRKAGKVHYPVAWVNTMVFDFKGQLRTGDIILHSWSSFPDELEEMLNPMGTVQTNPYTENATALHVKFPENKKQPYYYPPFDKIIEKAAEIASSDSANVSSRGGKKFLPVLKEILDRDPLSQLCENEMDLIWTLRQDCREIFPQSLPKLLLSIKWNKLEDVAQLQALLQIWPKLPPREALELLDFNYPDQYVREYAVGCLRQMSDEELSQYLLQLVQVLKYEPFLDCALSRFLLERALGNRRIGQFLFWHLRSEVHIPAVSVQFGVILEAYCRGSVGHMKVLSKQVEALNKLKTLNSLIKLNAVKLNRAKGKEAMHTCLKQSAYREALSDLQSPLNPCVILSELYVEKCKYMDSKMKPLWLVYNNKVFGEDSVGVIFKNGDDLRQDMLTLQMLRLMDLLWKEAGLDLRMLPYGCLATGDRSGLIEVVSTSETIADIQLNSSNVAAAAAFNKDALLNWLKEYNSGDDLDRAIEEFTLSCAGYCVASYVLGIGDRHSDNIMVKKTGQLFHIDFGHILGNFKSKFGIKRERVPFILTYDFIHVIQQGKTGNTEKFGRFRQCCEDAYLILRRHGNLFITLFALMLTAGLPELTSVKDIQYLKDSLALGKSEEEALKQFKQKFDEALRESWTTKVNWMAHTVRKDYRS
T4 sequence (P27986 whole entry partner): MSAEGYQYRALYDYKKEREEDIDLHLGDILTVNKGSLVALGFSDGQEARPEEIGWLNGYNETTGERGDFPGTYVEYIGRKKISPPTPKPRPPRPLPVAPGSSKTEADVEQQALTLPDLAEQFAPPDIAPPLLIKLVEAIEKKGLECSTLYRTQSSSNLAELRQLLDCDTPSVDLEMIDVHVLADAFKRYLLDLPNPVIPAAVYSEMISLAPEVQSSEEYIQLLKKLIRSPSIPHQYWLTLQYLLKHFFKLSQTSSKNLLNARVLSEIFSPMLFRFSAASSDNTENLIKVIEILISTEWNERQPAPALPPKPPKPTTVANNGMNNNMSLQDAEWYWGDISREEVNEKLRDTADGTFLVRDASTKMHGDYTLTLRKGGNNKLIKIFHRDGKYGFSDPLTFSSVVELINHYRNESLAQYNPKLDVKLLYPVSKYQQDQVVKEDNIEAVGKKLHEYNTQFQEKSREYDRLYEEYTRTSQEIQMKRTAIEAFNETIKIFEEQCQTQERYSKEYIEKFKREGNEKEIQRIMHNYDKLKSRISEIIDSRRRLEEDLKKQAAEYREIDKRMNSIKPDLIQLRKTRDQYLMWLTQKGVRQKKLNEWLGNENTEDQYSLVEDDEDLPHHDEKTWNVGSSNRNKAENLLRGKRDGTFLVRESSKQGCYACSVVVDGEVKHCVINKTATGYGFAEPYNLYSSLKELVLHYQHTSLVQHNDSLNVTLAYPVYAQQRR
T3 sequence (O00329 whole entry): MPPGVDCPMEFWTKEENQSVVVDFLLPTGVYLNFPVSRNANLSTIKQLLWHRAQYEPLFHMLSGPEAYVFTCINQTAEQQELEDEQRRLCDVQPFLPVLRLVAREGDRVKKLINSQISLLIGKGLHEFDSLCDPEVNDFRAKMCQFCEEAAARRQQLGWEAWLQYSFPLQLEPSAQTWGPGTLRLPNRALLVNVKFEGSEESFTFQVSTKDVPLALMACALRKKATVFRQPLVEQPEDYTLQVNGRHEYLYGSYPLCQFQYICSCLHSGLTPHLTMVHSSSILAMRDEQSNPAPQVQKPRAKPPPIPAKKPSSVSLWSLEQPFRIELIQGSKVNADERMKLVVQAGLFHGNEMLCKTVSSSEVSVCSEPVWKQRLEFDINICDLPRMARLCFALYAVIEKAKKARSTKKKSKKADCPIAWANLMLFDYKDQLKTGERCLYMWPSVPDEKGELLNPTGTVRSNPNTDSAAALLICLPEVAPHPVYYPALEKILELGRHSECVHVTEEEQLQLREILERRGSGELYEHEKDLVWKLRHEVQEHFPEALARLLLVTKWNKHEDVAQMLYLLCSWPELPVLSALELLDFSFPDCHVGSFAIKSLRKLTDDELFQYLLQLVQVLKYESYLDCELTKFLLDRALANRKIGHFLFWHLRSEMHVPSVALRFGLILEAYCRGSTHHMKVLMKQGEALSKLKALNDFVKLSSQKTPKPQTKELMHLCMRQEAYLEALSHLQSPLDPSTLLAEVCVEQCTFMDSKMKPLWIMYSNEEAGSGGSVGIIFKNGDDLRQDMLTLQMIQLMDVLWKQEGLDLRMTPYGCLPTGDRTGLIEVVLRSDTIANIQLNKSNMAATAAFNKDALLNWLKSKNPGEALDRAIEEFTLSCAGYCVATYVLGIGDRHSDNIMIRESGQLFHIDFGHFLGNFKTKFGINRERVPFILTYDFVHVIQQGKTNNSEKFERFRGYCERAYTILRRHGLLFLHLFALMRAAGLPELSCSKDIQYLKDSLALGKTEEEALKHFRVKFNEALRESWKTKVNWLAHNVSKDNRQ
T3 sequence (P27986 whole entry partner): as the sequence (P27986 whole entry partner) above
T1 sequence (P42336 whole entry): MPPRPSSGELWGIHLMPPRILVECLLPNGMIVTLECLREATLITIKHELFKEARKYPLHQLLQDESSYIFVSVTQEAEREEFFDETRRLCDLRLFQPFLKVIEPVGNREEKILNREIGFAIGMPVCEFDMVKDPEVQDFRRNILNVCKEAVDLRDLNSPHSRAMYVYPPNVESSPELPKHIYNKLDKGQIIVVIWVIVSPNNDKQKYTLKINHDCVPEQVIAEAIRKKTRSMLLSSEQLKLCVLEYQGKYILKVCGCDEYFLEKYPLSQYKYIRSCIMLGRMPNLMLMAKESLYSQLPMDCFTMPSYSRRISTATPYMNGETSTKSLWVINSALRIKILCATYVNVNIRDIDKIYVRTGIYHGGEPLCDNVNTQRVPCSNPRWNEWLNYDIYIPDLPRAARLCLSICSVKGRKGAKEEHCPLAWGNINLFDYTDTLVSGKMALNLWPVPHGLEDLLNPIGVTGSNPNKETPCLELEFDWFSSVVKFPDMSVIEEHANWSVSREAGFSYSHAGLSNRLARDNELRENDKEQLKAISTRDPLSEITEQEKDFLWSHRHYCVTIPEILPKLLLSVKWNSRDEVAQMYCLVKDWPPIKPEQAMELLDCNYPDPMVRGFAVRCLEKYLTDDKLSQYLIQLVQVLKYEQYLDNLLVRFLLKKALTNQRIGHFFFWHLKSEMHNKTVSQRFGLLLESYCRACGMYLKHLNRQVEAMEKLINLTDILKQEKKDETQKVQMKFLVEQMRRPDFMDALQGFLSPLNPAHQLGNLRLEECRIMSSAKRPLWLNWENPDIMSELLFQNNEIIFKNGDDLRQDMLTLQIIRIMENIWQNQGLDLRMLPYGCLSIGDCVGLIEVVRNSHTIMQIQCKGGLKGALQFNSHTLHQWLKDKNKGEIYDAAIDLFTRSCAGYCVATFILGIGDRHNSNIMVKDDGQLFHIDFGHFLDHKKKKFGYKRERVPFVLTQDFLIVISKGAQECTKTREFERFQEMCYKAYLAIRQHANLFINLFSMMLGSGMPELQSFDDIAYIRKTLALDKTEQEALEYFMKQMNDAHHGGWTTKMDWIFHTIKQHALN
T1 sequence (P27986 whole entry partner): as the sequence (P27986 whole entry partner) above
T2 sequence (P48736 whole entry): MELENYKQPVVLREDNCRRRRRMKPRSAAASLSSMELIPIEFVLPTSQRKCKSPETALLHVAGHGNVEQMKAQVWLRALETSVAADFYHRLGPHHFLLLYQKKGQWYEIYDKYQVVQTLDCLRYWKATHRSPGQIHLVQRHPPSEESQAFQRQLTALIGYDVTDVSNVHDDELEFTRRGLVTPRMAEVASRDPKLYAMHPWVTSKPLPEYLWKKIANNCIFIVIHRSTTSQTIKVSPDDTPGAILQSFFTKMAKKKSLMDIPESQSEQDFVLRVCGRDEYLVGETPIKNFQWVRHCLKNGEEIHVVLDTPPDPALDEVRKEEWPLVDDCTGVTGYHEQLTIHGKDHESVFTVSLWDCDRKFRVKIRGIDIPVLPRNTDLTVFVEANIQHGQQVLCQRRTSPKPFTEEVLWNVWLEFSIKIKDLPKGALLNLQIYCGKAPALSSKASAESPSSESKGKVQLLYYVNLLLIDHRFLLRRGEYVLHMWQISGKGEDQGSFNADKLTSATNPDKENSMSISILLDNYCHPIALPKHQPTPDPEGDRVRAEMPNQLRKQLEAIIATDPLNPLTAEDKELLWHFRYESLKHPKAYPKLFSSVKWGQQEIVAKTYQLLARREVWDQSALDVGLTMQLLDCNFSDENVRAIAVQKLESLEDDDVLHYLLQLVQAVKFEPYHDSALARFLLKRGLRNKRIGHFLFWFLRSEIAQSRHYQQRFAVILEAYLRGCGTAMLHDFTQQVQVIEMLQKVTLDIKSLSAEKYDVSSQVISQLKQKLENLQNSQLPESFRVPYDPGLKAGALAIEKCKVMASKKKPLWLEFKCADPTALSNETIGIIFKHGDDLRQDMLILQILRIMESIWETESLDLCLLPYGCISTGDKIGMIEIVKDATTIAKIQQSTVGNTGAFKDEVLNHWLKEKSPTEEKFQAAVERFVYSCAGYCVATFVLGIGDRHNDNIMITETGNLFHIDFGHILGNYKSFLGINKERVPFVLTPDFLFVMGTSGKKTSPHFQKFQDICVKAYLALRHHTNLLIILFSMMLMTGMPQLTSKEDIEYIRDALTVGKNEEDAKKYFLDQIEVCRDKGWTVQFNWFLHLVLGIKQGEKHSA

| IC50 (PI3Kα) | IC50 (PI3Kγ; [1]) | IC50 (PI3Kδ) | IC50 (PI3Kβ; [2]) | Compound | IC50 (PI3Kγ; Table 3, read-out: IC50 PIK3γ) | IC50 (PI3Kβ; Table 3, read-out: IC50 PIK3β) |
| --- | --- | --- | --- | --- | --- | --- |
| 7.41 µM | 4.09 µM | 0.0274 µM | 2.96 µM | COc1ccc(-c2nn(C(C)c3nc4cccc(F)c4c(=O)n3C3CCC3)c3ncnc(N)c23)cc1F (centres unmarked) [Compound 1, 2-(1-(4-amino-3-(3-fluoro-4-methoxyphenyl)-1H-pyrazolo [3,4-d]pyrimidin-1-yl)ethyl)-3-cyclobutyl-5-fluoroquinazolin-4(3H)-one] |  |  |
| 5.52 µM | 1.72 µM | 0.0186 µM | > 10 µM | COc1ccc(-c2nn(C(C)c3nc4cccc(F)c4c(=O)n3C3CCCC3)c3ncnc(N)c23)cc1F (centres unmarked) [Compound 5, 2-(1-(4-amino-3-(3-fluoro-4-methoxyphenyl)-1H-pyrazolo [3,4-d]pyrimidin-1-yl)ethyl)-3-cyclopentyl-5-fluoroquinazolin-4(3H)-one] |  |  |
| 1.69 µM | 0.299 µM | 0.031 µM | 0.523 µM | COc1ccc(-c2nn(Cc3nc4cccc(F)c4c(=O)n3C3CC3)c3ncnc(N)c23)cc1F [Compound 6, 2-((4-amino-3-(3-fluoro-4-methoxyphenyl)-1H-pyrazolo [3,4-d]pyrimidin-1-yl)methyl)-3-cyclopropyl-5-fluoroquinazolin-4(3H)-one] |  |  |
| 1.72 µM | 0.148 µM | 0.014 µM | 1.3 µM | COc1ccc(-c2nn(C(C)c3nc4cccc(F)c4c(=O)n3C3CC3)c3ncnc(N)c23)cc1F (centres unmarked) [Compound 8, 2-(1-(4-amino-3-(3-fluoro-4-methoxyphenyl)-1H-pyrazolo [3,4-d]pyrimidin-1-yl)ethyl)-3-cyclopropyl-5-fluoroquinazolin-4(3H)-one] |  |  |
|  | 0.103 µM | 0.0064 µM | 0.122 µM | COc1ccc(-c2nn(C(C)c3nc4ccccc4c(=O)n3C3CC3)c3ncnc(N)c23)cc1F (centres unmarked) [Compound 10, 2-(1-(4-amino-3-(3-fluoro-4-methoxyphenyl)-1H-pyrazolo [3,4-d]pyrimidin-1-yl)ethyl)-3-cyclopropylquinazolin-4(3H)-one] |  |  |
|  | 0.389 µM | 0.0183 µM | 0.27 µM | CCC(c1nc2ccccc2c(=O)n1C1CC1)n1nc(-c2ccc(OC)c(F)c2)c2c(N)ncnc21 (centres unmarked) [Compound 11, 2-(1-(4-amino-3-(3-fluoro-4-methoxyphenyl)-1H-pyrazolo [3,4-d]pyrimidin-1-yl)propyl)-3-cyclopropylquinazolin-4(3H)-one] |  |  |
|  | > 10 µM | 0.0319 µM | > 10 µM | COc1ccc(-c2nn(C(C)c3nc4cccc(F)c4c(=O)n3C3CCCC3)c3ncnc(N)c23)cc1 (centres unmarked) [Compound 14, 2-(1-(4-amino-3-(4-methoxyphenyl)-1H-pyrazolo [3,4-d]pyrimidin-1-yl)ethyl)-3-cyclopentyl-5-fluoroquinazolin-4(3H)-one] |  |  |
|  | 0.689 µM | 0.0379 µM | 0.547 µM | COc1ccc(-c2nn(C(C)c3nc4cccc(F)c4c(=O)n3C3CCC3)c3ncnc(N)c23)cc1 (centres unmarked) [Compound 19, 2-(1-(4-amino-3-(4-methoxyphenyl)-1H-pyrazolo [3,4-d]pyrimidin-1-yl)ethyl)-3-cyclobutyl-5-fluoroquinazolin-4(3H)-one] |  |  |
| 1.69 µM | 0.485 µM | 0.0041 µM | 0.344 µM | COc1ccc(-c2nn(C(C)c3nc4ccc(F)cc4c(=O)n3C3CC3)c3ncnc(N)c23)cc1F (centres unmarked) [Compound 22, 2-(1-(4-amino-3-(3-fluoro-4-methoxyphenyl)-1H-pyrazolo [3,4-d]pyrimidin-1-yl)ethyl)-3-cyclopropyl-6-fluoroquinazolin-4(3H)-one] |  |  |
| 6.44 µM | 0.922 µM | 0.0095 µM | 0.999 µM | CCC(c1nc2ccc(F)cc2c(=O)n1C1CC1)n1nc(-c2ccc(OC)c(F)c2)c2c(N)ncnc21 (centres unmarked) [Compound 23, 2-(1-(4-amino-3-(3-fluoro-4-methoxyphenyl)-1H-pyrazolo [3,4-d]pyrimidin-1-yl)propyl)-3-cyclopropyl-6-fluoroquinazolin-4(3H)-one] |  |  |
| 1.1 µM | 0.434 µM | 0.0103 µM |  | COc1ccc(-c2nn(C(C)c3nc4cccc(F)c4c(=O)n3C3CCC3)c3ncnc(N)c23)cc1OC (centres unmarked) [Compound 27, 2-(1-(4-amino-3-(3,4-dimethoxyphenyl)-1H-pyrazolo [3,4-d]pyrimidin-1-yl)ethyl)-3-cyclobutyl-5-fluoroquinazolin-4(3H)-one] |  |  |
| 4.21 µM | 0.753 µM | 0.001 µM | 3.28 µM | COc1ccc(-c2nn(C(C)c3nc4ccccc4c(=O)n3C3CCC3)c3ncnc(N)c23)cc1 (centres unmarked) [Compound 37, 2-(1-(4-amino-3-(4-methoxyphenyl)-1H-pyrazolo [3,4-d]pyrimidin-1-yl)ethyl)-3-cyclobutylquinazolin-4(3H)-one] |  |  |
| 2.23 µM | 0.261 µM | 0.00959 µM | 0.581 µM | COc1ccc(-c2nn(C(C)c3nc4ccccc4c(=O)n3C3CCC3)c3ncnc(N)c23)cc1OC (centres unmarked) [Compound 38, 2-(1-(4-amino-3-(3,4-dimethoxyphenyl)-1H-pyrazolo [3,4-d]pyrimidin-1-yl)ethyl)-3-cyclobutylquinazolin-4(3H)-one] |  |  |
| 3.77 µM | 0.576 µM | 0.0083 µM | 0.69 µM | COc1ccc(-c2nn(C(C)c3nc4ccc(F)cc4c(=O)n3C3CC3)c3ncnc(N)c23)cc1 (centres unmarked) [Compound 42, 2-(1-(4-amino-3-(4-methoxyphenyl)-1H-pyrazolo [3,4-d]pyrimidin-1-yl)ethyl)-3-cyclopropyl-6-fluoroquinazolin-4(3H)-one] |  |  |
|  | 0.471 µM | 0.0164 µM | 0.79 µM | CC[C@@H](c1nc2cccc(F)c2c(=O)n1C1CC1)n1nc(-c2ccc(OC)c(F)c2)c2c(N)ncnc21 [Compound 81, 2-((S)-1-(4-amino-3-(3-fluoro-4-methoxyphenyl)-1H-pyrazolo [3,4-d]pyrimidin-1-yl)propyl)-3-cyclopropyl-5-fluoroquinazolin-4(3H)-one] |  |  |
|  |  |  |  | CC(C)Oc1ccc(-c2nn([C@@H](C)c3oc4ccc(F)cc4c(=O)c3-c3cccc(F)c3)c3ncnc(N)c23)cc1F [TGR1202, reference compound] | 0.362 µM | > 10 µM |

From patent US12221448B2, “Selective PI3Kδ inhibitor and use thereof” (TARAPEUTICS SCIENCE INC., priority 2018, dated 2025)
